Measurements from ChEMBL document CHEMBL1201862, “PubChem BioAssay data set” (2004).
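The compound was tested at five concentrations on cells cultured in 96-well plates, with a 48-hour exposure period. GI50 is the concentration that inhibits growth by half.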 The source made the active and inactive calls. Cut-off read from the data, not from the text of the source: active = GI50 up to about 1.1 µM and inactive = higher.

Experiments:
Test in all cases: inhibition of tumour cell growth, NCI panel, 48 h
MDA-MB-231 = tested on: MDA-MB-231
HCC 2998 = tested on: HCC 2998
SK-MEL-28 = tested on: SK-MEL-28
SW-620 = tested on: SW-620
MDA-MB-435 = tested on: MDA-MB-435
OVCAR-8 = tested on: OVCAR-8
SK-OV-3 = tested on: SK-OV-3
DU-145 = tested on: DU-145
MOLT-4 = tested on: MOLT-4
EKVX = tested on: EKVX
HL-60 = tested on: HL-60
K562 = tested on: K562
U-251 = tested on: U-251
T47D = tested on: T47D
786-0 = tested on: 786-0
NCI/ADR-RES = tested on: NCI/ADR-RES
UO-31 = tested on: UO-31
NCI-H23 = tested on: NCI-H23
OVCAR-5 = tested on: OVCAR-5
UACC-62 = tested on: UACC-62

Measured: GI50

CC(=O)C1(Cc2cccc3ccccc23)S(=O)(=O)OCCOS1(=O)=O
inactive: MDA-MB-231 15.8 µM | HCC 2998 17.3 µM | SK-MEL-28 19.3 µM | SW-620 18.3 µM | MDA-MB-435 14.7 µM | OVCAR-8 19.5 µM | SK-OV-3 2.72 µM | DU-145 18.4 µM | MOLT-4 29.1 µM | EKVX 18.5 µM | HL-60 15.2 µM | K562 28.4 µM | U-251 16.7 µM | T47D 18.5 µM | 786-0 23.5 µM | NCI/ADR-RES 21.8 µM | UO-31 15.8 µM | NCI-H23 22.9 µM | OVCAR-5 17.6 µM | UACC-62 14.6 µM

CCC1CN2CCc3cc(OC)c(OC)cc3C2CC1CC1c2cc(OC)c(OC)cc2CCN1C(=O)C(Cc1c[nH]c2ccccc12)NC(=O)OC(C)(C)C (stereo not given)
inactive: MDA-MB-231 2.16 µM | HCC 2998 2.63 µM | SK-MEL-28 1.98 µM | SW-620 2.82 µM | MDA-MB-435 1.78 µM | OVCAR-8 3.27 µM | SK-OV-3 4.8 µM | DU-145 2.42 µM | MOLT-4 2.47 µM | EKVX 5.7 µM | HL-60 2.03 µM | K562 2.7 µM | U-251 2.57 µM | T47D 1.85 µM | 786-0 2.61 µM | NCI/ADR-RES 1.63 µM | UO-31 2.77 µM | NCI-H23 7.67 µM | OVCAR-5 8.81 µM | UACC-62 5.64 µM

CSc1nc(=O)n(CCC#N)nc1SC
inactive: MDA-MB-231 19.2 µM | HCC 2998 15 µM | SK-MEL-28 14 µM | SW-620 21 µM | MDA-MB-435 23.1 µM | OVCAR-8 59.6 µM | SK-OV-3 > 100 µM | DU-145 51.8 µM | MOLT-4 23.7 µM | EKVX > 100 µM | HL-60 4.19 µM | K562 25.6 µM | U-251 > 100 µM | T47D 24.3 µM | 786-0 25.3 µM | NCI/ADR-RES > 100 µM | UO-31 51.8 µM | NCI-H23 55.3 µM | OVCAR-5 41.8 µM | UACC-62 32.3 µM

Cc1ccc(S(=O)(=O)NC(CO)C(=O)O)cc1 (stereo not given)
inactive: MDA-MB-231 > 100 µM | HCC 2998 > 100 µM | SK-MEL-28 > 100 µM | SW-620 > 100 µM | MDA-MB-435 > 100 µM | OVCAR-8 > 100 µM | SK-OV-3 > 100 µM | DU-145 > 100 µM | MOLT-4 > 100 µM | EKVX > 100 µM | HL-60 > 100 µM | K562 > 100 µM | U-251 > 100 µM | T47D > 100 µM | 786-0 > 100 µM | NCI/ADR-RES > 100 µM | UO-31 > 100 µM | NCI-H23 > 100 µM | OVCAR-5 > 100 µM | UACC-62 > 100 µM

O=C(CSCC(=O)N/N=C/c1ccncc1)N/N=C/c1ccncc1
inactive: MDA-MB-231 > 100 µM | HCC 2998 > 100 µM | SK-MEL-28 > 100 µM | SW-620 > 100 µM | MDA-MB-435 > 100 µM | OVCAR-8 > 100 µM | SK-OV-3 > 100 µM | DU-145 > 100 µM | MOLT-4 > 100 µM | EKVX > 100 µM | HL-60 > 100 µM | K562 > 100 µM | U-251 > 100 µM | T47D > 100 µM | 786-0 > 100 µM | NCI/ADR-RES > 100 µM | UO-31 > 100 µM | NCI-H23 > 100 µM | OVCAR-5 > 100 µM | UACC-62 > 100 µM

CC(=O)Nc1c(S(=O)(=O)c2ccccc2)c(C)c(C)n1CCN(C)C
inactive: MDA-MB-231 > 100 µM | HCC 2998 > 100 µM | SK-MEL-28 > 100 µM | SW-620 > 100 µM | MDA-MB-435 > 100 µM | OVCAR-8 > 100 µM | SK-OV-3 > 100 µM | DU-145 > 100 µM | MOLT-4 > 100 µM | EKVX > 100 µM | HL-60 > 100 µM | K562 > 100 µM | U-251 > 100 µM | T47D > 100 µM | 786-0 > 100 µM | NCI/ADR-RES > 100 µM | UO-31 > 100 µM | NCI-H23 > 100 µM | OVCAR-5 > 100 µM | UACC-62 > 100 µM

CC(C)C1C(=O)N(c2c(F)c(F)c(F)c(F)c2F)C(=S)N1CC[S+]([O-])c1ccccc1 (stereo not given)
inactive: MDA-MB-231 16 µM | HCC 2998 8.47 µM | SK-MEL-28 16.9 µM | SW-620 18.3 µM | MDA-MB-435 17.5 µM | OVCAR-8 17.1 µM | SK-OV-3 19.6 µM | DU-145 20.7 µM | MOLT-4 21.2 µM | EKVX 16.4 µM | HL-60 6.84 µM | K562 10.8 µM | U-251 14.8 µM | T47D 6.78 µM | 786-0 16.9 µM | NCI/ADR-RES 20 µM | UO-31 14.8 µM | NCI-H23 16.8 µM | OVCAR-5 17.7 µM | UACC-62 19.7 µM

Cc1cc(NS(=O)(=O)c2ccc(Nc3c4ccccc4nc4ccc(C(=O)Nc5ccc(S(N)(=O)=O)cc5)cc34)cc2)no1
inactive: MDA-MB-231 > 100 µM | HCC 2998 > 100 µM | SK-MEL-28 > 100 µM | SW-620 > 100 µM | MDA-MB-435 > 100 µM | OVCAR-8 > 100 µM | SK-OV-3 > 100 µM | DU-145 > 100 µM | MOLT-4 > 100 µM | EKVX > 100 µM | HL-60 > 100 µM | K562 > 100 µM | U-251 57.4 µM | T47D 84.3 µM | 786-0 > 100 µM | NCI/ADR-RES > 100 µM | UO-31 > 100 µM | NCI-H23 > 100 µM | OVCAR-5 > 100 µM | UACC-62 > 100 µM
